Source: patent US7781591B2, “Substituted 3-cyanopyridines as protein kinase inhibitors” (Wyeth LLC, priority 2006, dated 2010)

How the values were obtained:
Format in all cases: biochemical
[1] = target: T1, purified recombinant active kinase domain of full length PKC theta (amino acids 362-706) (Homo sapiens, UniProt Q04759); assay: Radioactive kinase assay for inhibition of the active kinase domain (KD) of PKCθ; conditions: active kinase domain of PKC theta (amino acids 362-706), average value, read-out: IC50 PKCθKD
T1 construct: active kinase domain of full length PKC theta (amino acids 362-706)
Method: A Radioactive Kinase Assay for Inhibition of the Active Kinase Domain (KD) of PKCθ
(§1) This assay is based on the phosphorylation of a biotinylated substrate by a kinase utilizing radiolabeled ATP (ATP γ P33). The substrate was a biotinylated peptide with a sequence of biotin-[…]-C(O)NH2. The enzyme was purified recombinant active kinase domain of full length PKC theta (amino acids 362-706). The assay buffer was composed of 100 mM Hepes, pH7.5, 2 mM MgCl2, 20 mM β-glycerophosphate and 0.008% TritonX 100. A reaction mixture of ATP, ATP γ P33 (PerkinElmer), DTT, and the enzyme was prepared in the assay buffer and added to a 96-well polypropylene plate. The compound (diluted in DMSO in a separate 96-well polypropylene plate) was added to the reaction mixture and incubated at room temperature. Following the incubation, the peptide substrate was added to the reaction mixture to initiate the enzymatic reaction. The reaction was terminated with the addition of a stop solution (100 mM EDTA, 0.2% TritonX100, and 20 mM NaHPO4) and transferred from the assay plate to a washed streptavidin-coated 96-well scintiplate (PerkinElmer). The scintiplate was incubated at room temperature, washed in PBS with 0.1% TritonX 100, and counted in the 1450 Microbeta Trilux (Wallac, Version 2.60). Counts were recorded for each well as corrected counts per minute (CCPM). The counts were considered corrected because they were adjusted according to a P33 normalization protocol, which corrects for efficiency and background differences between the instrument detectors (software version 4.40.01).

[2] = target: T2, purified recombinant full length PKC theta (Panvera, P2996) (Homo sapiens, UniProt Q04759); assay: Radioactive kinase assay for inhibition of full length (FL) PKCθ; conditions: average value
T2 construct: purified recombinant full length PKC theta (Panvera, P2996); purchased Panvera P2996
Method: as §1, with “The enzyme was purified recombinant active kinase domain of full length PKC theta (amino acids 362-706).” left out, “The scintiplate was incubated at room temperature, washed in PBS with 0.1% TritonX 100, and counted in the 1450 Microbeta Trilux (Wallac, Version 2.60).” left out
A Radioactive Kinase Assay for Inhibition of Full Length (FL) PKCθ Inhibitors
This assay differs from what was described above in that the enzyme used was purified recombinant full length PKC theta (Panvera, P2996).

[3] = target: T3, human PKCθ full length enzyme (Homo sapiens, UniProt Q04759); assay: PKCθ IMAP assay (fluorescence polarization); conditions: human PKCθ full length enzyme, IMAP; average value; read-out: IC50 PKCθ IMAP
T3 construct: human PKCθ full length enzyme (Panvera Cat# P2996); purchased Panvera P2996
T3 sequence (Q04759 whole entry): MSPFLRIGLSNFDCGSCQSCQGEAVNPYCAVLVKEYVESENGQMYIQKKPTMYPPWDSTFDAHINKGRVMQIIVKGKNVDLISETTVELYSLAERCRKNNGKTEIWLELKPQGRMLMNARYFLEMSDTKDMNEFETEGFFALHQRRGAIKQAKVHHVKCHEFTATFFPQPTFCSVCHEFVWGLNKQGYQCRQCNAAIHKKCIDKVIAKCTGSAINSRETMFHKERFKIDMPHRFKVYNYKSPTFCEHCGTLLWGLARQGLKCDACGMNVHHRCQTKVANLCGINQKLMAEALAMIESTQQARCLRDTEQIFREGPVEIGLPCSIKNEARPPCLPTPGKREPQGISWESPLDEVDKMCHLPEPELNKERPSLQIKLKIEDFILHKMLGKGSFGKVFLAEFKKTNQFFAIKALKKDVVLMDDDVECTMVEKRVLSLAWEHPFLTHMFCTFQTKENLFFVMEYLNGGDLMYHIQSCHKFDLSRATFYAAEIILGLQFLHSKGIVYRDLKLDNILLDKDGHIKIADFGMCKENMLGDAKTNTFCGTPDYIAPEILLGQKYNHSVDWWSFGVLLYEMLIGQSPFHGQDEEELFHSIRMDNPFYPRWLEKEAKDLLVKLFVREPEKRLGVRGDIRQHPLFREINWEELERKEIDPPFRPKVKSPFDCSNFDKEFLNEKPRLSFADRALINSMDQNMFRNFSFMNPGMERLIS

T2 sequence (Q04759 whole entry): as above
T1 sequence (Q04759 362-706): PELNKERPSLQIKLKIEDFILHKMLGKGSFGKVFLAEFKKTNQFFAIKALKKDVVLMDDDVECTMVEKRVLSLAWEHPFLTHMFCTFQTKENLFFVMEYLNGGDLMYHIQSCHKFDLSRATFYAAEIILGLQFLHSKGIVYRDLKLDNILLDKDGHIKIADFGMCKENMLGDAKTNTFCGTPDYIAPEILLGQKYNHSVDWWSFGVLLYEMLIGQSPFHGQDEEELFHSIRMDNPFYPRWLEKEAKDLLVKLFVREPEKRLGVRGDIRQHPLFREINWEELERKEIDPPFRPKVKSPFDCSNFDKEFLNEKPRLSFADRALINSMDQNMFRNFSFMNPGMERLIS

Row | Compound | IC50 [1] | IC50 [2] | IC50 [3]
1 | COc1ccc(-c2cncc(C#N)c2Nc2ccc3c(c2)OCCO3)cc1OC [Compound 106, 4-(2,3-dihydro-1,4-benzodioxin-6-ylamino)-5-(3,4-dimethoxyphenyl)nicotinonitrile] | 11400 nM |  | 
2 | COc1ccc(-c2cncc(C#N)c2Nc2ccc3cc[nH]c3c2)cc1OC [Compound 108, 5-(3,4-dimethoxyphenyl)-4-(1H-indol-6-ylamino)nicotinonitrile] | 1010 nM | 2250 nM | 450 nM
3 | CC(=O)Nc1ccc(-c2cccc(-c3cncc(C#N)c3Nc3ccc4[nH]ccc4c3)c2)cc1 [Compound 120, N-{3′-[5-cyano-4-(1H-indol-5-ylamino)pyridin-3-yl]biphenyl-4-yl}acetamide] |  | 120 nM | 230 nM
4 | N#Cc1cncc(-c2cccc(-c3ccccc3Cl)c2)c1Nc1ccc2[nH]ccc2c1 [Compound 129, 5-(2′-chlorobiphenyl-3-yl)-4-(1H-indol-5-ylamino)nicotinonitrile] |  | 60 nM | 240 nM
5 | N#Cc1cncc(-c2cccc(-c3cccc(Cl)c3)c2)c1Nc1ccc2[nH]ccc2c1 [Compound 130, 5-(3′-chlorobiphenyl-3-yl)-4-(1H-indol-5-ylamino)nicotinonitrile] |  | 80 nM | 160 nM
6 | N#Cc1cncc(-c2cccc(-c3ccc(Cl)cc3)c2)c1Nc1ccc2[nH]ccc2c1 [Compound 131, 5-(4′-chlorobiphenyl-3-yl)-4-(1H-indol-5-ylamino)nicotinonitrile] |  | 50 nM | 120 nM
7 | N#Cc1cncc(-c2cccc(-c3ncccn3)c2)c1Nc1ccc2[nH]ccc2c1 [Compound 138, 4-(1H-indol-5-ylamino)-5-(3-pyrimidin-2-ylphenyl)nicotinonitrile] |  | 100 nM | 190 nM
8 | COCCOc1cc(-c2cncc(C#N)c2Nc2ccc3[nH]ccc3c2)ccc1OC [Compound 154, 4-(1H-indol-5-ylamino)-5-[4-methoxy-3-(2-methoxyethoxy)phenyl]nicotinonitrile] |  | 360 nM | 320 nM
9 | N#Cc1cncc(-c2cccc(OCCN3CCCC3)c2)c1Nc1ccc2[nH]ccc2c1 [Compound 174, 4-(1H-indol-5-ylamino)-5-[3-(2-pyrrolidin-1-ylethoxy)phenyl]nicotinonitrile] |  | 70 nM | 
10 | N#Cc1cncc(-c2cccc(OCCN3CCOCC3)c2)c1Nc1ccc2[nH]ccc2c1 [Compound 175, 4-(1H-indol-5-ylamino)-5-[3-(2-morpholin-4-ylethoxy)phenyl]nicotinonitrile] |  | 100 nM | 
11 | N#Cc1cncc(-c2cccc(OCc3ccccc3)c2)c1Nc1ccc2[nH]ccc2c1 [Compound 194, 5-[3-(benzyloxy)phenyl]-4-(1H-indol-5-ylamino)nicotinonitrile] |  | 50 nM | 
12 | N#Cc1cncc(-c2cccc(-c3ccc(C(=O)NCc4ccccc4)cc3)c2)c1Nc1ccc2[nH]ccc2c1 [Compound 204, N-benzyl-3′-[5-cyano-4-(1H-indol-5-ylamino)pyridin-3-yl]biphenyl-4-carboxamide] |  | 190 nM | 
13 | N#Cc1cncc(-c2cccc(-c3ccc(C(=O)N4CCOCC4)cc3)c2)c1Nc1ccc2[nH]ccc2c1 [Compound 206, 4-(1H-indol-5-ylamino)-5-[4′-(morpholin-4-ylcarbonyl)biphenyl-3-yl]nicotinonitrile] |  | 1140 nM | 
14 | CN1CCN(C(=O)c2ccc(-c3cccc(-c4cncc(C#N)c4Nc4ccc5[nH]ccc5c4)c3)cc2)CC1 [Compound 207, 4-(1H-indol-5-ylamino)-5-{4′-[(4-methylpiperazin-1-yl)carbonyl]biphenyl-3-yl}nicotinonitrile] |  | 530 nM | 

Other lines, results leading:

Row | IC50 [1] | IC50 [2] | IC50 [3] | Compound
15 | 140 nM | 83 nM | 140 nM | COc1ccc(-c2cncc(C#N)c2Nc2ccc3[nH]ccc3c2)cc1OC [Compound 101, 5-(3,4-dimethoxyphenyl)-4-(1H-indol-5-ylamino)nicotinonitrile]
16 | 960 nM |  |  | COc1ccc(-c2cncc(C#N)c2Nc2cccc3nsnc23)cc1OC [Compound 102, 4-(2,1,3-benzothiadiazol-4-ylamino)-5-(3,4-dimethoxyphenyl)nicotinonitrile]
17 | 5680 nM |  |  | COc1ccc(-c2cncc(C#N)c2Nc2cccc3cnccc23)cc1OC [Compound 103, 5-(3,4-dimethoxyphenyl)-4-(isoquinolin-5-ylamino)nicotinonitrile]
18 | 6560 nM |  |  | COc1ccc(-c2cncc(C#N)c2Nc2cccc3ncccc23)cc1OC [Compound 104, 5-(3,4-dimethoxyphenyl)-4-(quinolin-5-ylamino)nicotinonitrile]
19 | 2660 nM |  |  | COc1ccc(-c2cncc(C#N)c2Nc2cccc3c2CCCC3)cc1OC [Compound 105, 5-(3,4-dimethoxyphenyl)-4-(5,6,7,8-tetrahydronaphthalen-1-ylamino)nicotinonitrile]
20 | 150 nM | 40 nM | 13 nM | COc1ccc(-c2cncc(C#N)c2Nc2cccc3[nH]ccc23)cc1OC [Compound 109, 5-(3,4-dimethoxyphenyl)-4-(1H-indol-4-ylamino)nicotinonitrile]
21 |  | 60 nM | 16 nM | COCCOc1ccc(-c2cncc(C#N)c2Nc2cccc3[nH]ccc23)cc1OC [Compound 159, 4-(1H-indol-4-ylamino)-5-[3-methoxy-4-(2-methoxyethoxy)phenyl]nicotinonitrile]
22 |  | 360 nM |  | COc1ccc(-c2cncc(C#N)c2Nc2cc(C)c3[nH]ccc3c2)cc1OC [Compound 217, 5-(3,4-dimethoxyphenyl)-4-[(7-methyl-1H-indol-5-yl)amino]nicotinonitrile]
23 |  | > 20000 nM |  | COc1ccc(-c2cncc(C#N)c2Oc2ccc3[nH]ccc3c2)cc1OC [Compound 220, 5-(3,4-dimethoxyphenyl)-4-(1H-indol-5-yloxy)nicotinonitrile]
